Test results as given in patent US6667336B2, “GlyT-1 inhibitors” (NPS Allelix Corp., priority 2002, dated 2003).
Where “and” joins values, the source holds several entries; their conditions need not be identical. Equal values may be shown once. Marks after values point to notes of the source that are not given here.

Tested on: male CD-1 mice
Experiment: 5 day chronic oral dosing toxicity study in mice (clinical signs)
Assay type: in vivo
Set-up: key to Clinical signs (observation code), Day 1, 24 hours / Clinical signs (observation code), Day 2, 24 hours / Clinical signs (observation code), Day 3, 24 hours / Clinical signs (observation code), Day 4, 24 hours / Clinical signs (observation code), Day 5, 24 hours / Clinical signs (observation code), Day 1, 4 hours / Clinical signs (observation code), Day 2, 4 hours / Clinical signs (observation code), Day 3, 4 hours / Clinical signs (observation code), Day 4, 4 hours / Clinical signs (observation code), Day 5, 4 hours: 0: Appeared Normal; 1: Activity (inc./dec.); 2: Sedation/Lethargy; 3: Piloerection; 4: Stereotypy; 5: Soft Stool; 6: Chromodacryorrhea; 7: Epistaxis; 8: Cyanosis; 9: Flaccidity; 10: Respiration; 11: Hunched Posture; 12: Enophthalmia; 13: Exophthalmia; 14: Palpabral Ptosis; 15: Loss of Righting; 16: Chromaturia; 17: Salivation; 18: Lacrimation; 19: Miosis; 20: Mydriasis; 21: Rigidity; 22: Ataxia; 23: Tremors; 24: Convulsions; 25: Catalepsy; 26: Lateral Recumbency; 27: Death
Details: for Toxicity profile in comparison (compounds of formula 1 vs other GlyT1 inhibitors of similar potency): 5 day oral dosing in mice, tables 1-18; for Clinical signs (observation code), Day 4, 4 hours / Clinical signs (observation code), Day 1, 4 hours / Clinical signs (observation code), Day 2, 4 hours / Clinical signs (observation code), Day 3, 4 hours / Clinical signs (observation code), Day 5, 4 hours / Clinical signs (observation code), Day 1, 24 hours / Clinical signs (observation code), Day 2, 24 hours / Clinical signs (observation code), Day 3, 24 hours / Clinical signs (observation code), Day 4, 24 hours / Clinical signs (observation code), Day 5, 24 hours: one line per animal
Experimental: This example illustrated a 5 day chronic oral dosing toxicity study with GlyT1 inhibitors. […] Behavioral observations (clinical signs) and body weights were recorded daily for all compounds tested. Male CD-1 mice were purchased from Charles River Labs (Kingston, N.Y.). The animals weighed between 20-25 grams upon arrival. Animals were acclimatized in a temperature/humidity (72° ±5° F./50%±5%) controlled vivarium, with a common 12 hour light/dark cycle (Lights on 0700 hrs) for 5 days prior to test. All animals were allowed food (Purina Labdiete® Rodent chow # 5001) and water (supplied by Elizabethtown Water Company) ad libitum during the acclimation period and throughout the study. On the day prior to test initiation animals were randomly assigned to groups: All animals chosen for test weighed at least 20 grams and appeared in good condition. Each animal was dosed once daily for 5 days. Animals remained on site for a 3 day recovery period following the chronic dosing period.
A stock concentration of each test compound was prepared fresh on the day of study initiation. Aliquots were diluted to the needed concentrations for daily dosing. Stock solutions were kept in a refrigerator when not in use. Each compound was dissolved in a small amount of distilled water. One equivalent of sodium hydroxide (2 N) may have been added to aid in dissolution of each test agent. Vehicle was then added quantum sufficiat to give the final volume. Final volumes were adjusted to reflect percent free base when appropriate. The vehicle used in this experiment was Hydroxypropyl-β-cyclodextrine (HPCD) Acros, lot 011849601, dissolved in distilled water to form a 10% weight/volume concentration. The pH was adjusted, using sodium hydroxide (2 N), to equal that of the test agents (usually between 8 to 10). All prepared test compounds were either in solution, and clear, or in suspension, and slightly cloudy. Suspensions were mixed immediately prior to use.
All animals were administered either test compound or vehicle Per Os (PO) via 21 gauge gavage needles, in volumes of 10.0 ml/kg. Daily body weights were used to determine individual dosing volumes. All test compounds were weighed on a Denver Instruments analytical balance (model # A-250). Animals were weighed on a top loading Ohaus portable balance model # LS2000.
Animals were assessed for overt behaviors (clinical signs) immediately following administration of test agents, then again at 4 and 24 hours. Animals were assessed for 27 separate clinical signs:
Toxicity data obtained through the assay as described above is provided in Tables 1 to 14 for Compounds Gi to Gxiv inclusive. The animals were observed immediately following administration and again at 4 hours and 24 hours. Observations are reported using the code number from the following chart: […]

[1] = 40 mg/kg/day PO, male CD-1 mice

CN(C/C=C(\c1ccccc1)c1ccc(-c2ccccc2)cc1)CC(=O)O [Compound J, reference compound]
Toxicity profile in comparison (compounds of formula 1 vs other GlyT1 inhibitors of similar potency): higher toxicity profile | Clinical signs (observation code), Day 4, 4 hours (PO, mice): 0 | Clinical signs (observation code), Day 1, 4 hours (dose 10 (m↓kg) PO, mice): 0 | Clinical signs (observation code), Day 2, 4 hours (dose 10 (m↓kg) PO, mice): 0 | Clinical signs (observation code), Day 3, 4 hours (dose 10 (m↓kg) PO, mice): 0 | Clinical signs (observation code), Day 5, 4 hours (dose 10 (m↓kg) PO, mice): 0 | Clinical signs (observation code), Day 1, 24 hours (dose 25 (m↓kg) PO, mice): 0 | Clinical signs (observation code), Day 2, 24 hours (dose 25 (m↓kg) PO, mice): 0 and 2

COc1cccc(-c2ccc(/C(=C/CN(C)CC(=O)O)c3ccsc3)cc2)c1 [Compound G(v), (Z)-N-(1-(4-(3-Methoxyphenyl)phenyl)-1-(3-thienyl)prop-1-en-3-yl)sarcosine]
Clinical signs (observation code), Day 1, 4 hours [1]: 0 | Clinical signs (observation code), Day 1, 24 hours [1]: 0 | Clinical signs (observation code), Day 2, 4 hours [1]: 0 | Clinical signs (observation code), Day 2, 24 hours [1]: 0 | Clinical signs (observation code), Day 3, 4 hours [1]: 0 | Clinical signs (observation code), Day 3, 24 hours [1]: 0 | Clinical signs (observation code), Day 4, 4 hours [1]: 0 | Clinical signs (observation code), Day 4, 24 hours [1]: 0 | Clinical signs (observation code), Day 5, 4 hours [1]: 0 | Clinical signs (observation code), Day 5, 24 hours [1]: 0

CN(C/C=C(/c1ccc(-c2cccc(C(F)(F)F)c2)cc1)c1ccc(Cl)s1)CC(=O)O [Compound K, reference compound]
Clinical signs (observation code), Day 1, 4 hours [1]: 1 and 0 (2×) | Clinical signs (observation code), Day 1, 24 hours [1]: 27* | Toxicity profile in comparison (compounds of formula 1 vs other GlyT1 inhibitors of similar potency): higher toxicity profile

CN(C/C=C(/c1ccc(-c2cccs2)cc1)c1ccsc1)CC(=O)O [Compound G(iii), (Z)-N-(1-(4-(2-Thienyl)phenyl)-1-(3-thienyl)prop-1-en-3-yl)sarcosine]
Clinical signs (observation code), Day 1, 4 hours [1]: 0 | Clinical signs (observation code), Day 1, 24 hours [1]: 0 | Clinical signs (observation code), Day 2, 4 hours [1]: 0 | Clinical signs (observation code), Day 2, 24 hours [1]: 0 | Clinical signs (observation code), Day 3, 4 hours [1]: 0 | Clinical signs (observation code), Day 3, 24 hours [1]: 0 | Clinical signs (observation code), Day 4, 4 hours [1]: 14 and 0 | Clinical signs (observation code), Day 4, 24 hours [1]: 0 | Clinical signs (observation code), Day 5, 4 hours [1]: 0 | Clinical signs (observation code), Day 5, 24 hours [1]: 0

CN(C/C=C(\c1ccccc1)c1ccc(-c2ccsc2)cc1)CC(=O)O [Compound I, reference compound]
Clinical signs (observation code), Day 1, 24 hours [1]: 0 | Clinical signs (observation code), Day 2, 24 hours [1]: 0 | Clinical signs (observation code), Day 3, 24 hours [1]: 0 | Clinical signs (observation code), Day 4, 24 hours [1]: 0 | Toxicity profile in comparison (compounds of formula 1 vs other GlyT1 inhibitors of similar potency): higher toxicity profile

Cc1ccccc1/C(=C\CN(C)CC(=O)O)c1ccc(-c2ccsc2)cc1 [Compound G(xiv), (Z)-N-(1-(4-(3-Thienyl)phenyl)-1-(2-methylphenyl)prop-1-en-3-yl)sarcosine]
Clinical signs (observation code), Day 1, 4 hours [1]: 0 | Clinical signs (observation code), Day 1, 24 hours [1]: 0 | Clinical signs (observation code), Day 2, 4 hours [1]: 0 | Clinical signs (observation code), Day 2, 24 hours [1]: 0 | Clinical signs (observation code), Day 3, 4 hours [1]: 0 | Clinical signs (observation code), Day 3, 24 hours [1]: 0 | Clinical signs (observation code), Day 4, 4 hours [1]: 0 | Clinical signs (observation code), Day 4, 24 hours [1]: 0 | Clinical signs (observation code), Day 5, 4 hours [1]: 0 | Clinical signs (observation code), Day 5, 24 hours [1]: 0

CN(C/C=C(/c1ccc(-c2ccsc2)cc1)c1cccs1)CC(=O)O [Compound G(ix), (Z)-N-(1-(4-(3-Thienyl)phenyl)-1-(2-thienyl)prop-1-en-3-yl)sarcosine]
Clinical signs (observation code), Day 1, 4 hours [1]: 0 | Clinical signs (observation code), Day 1, 24 hours [1]: 0 | Clinical signs (observation code), Day 2, 4 hours [1]: 0 | Clinical signs (observation code), Day 2, 24 hours [1]: 0 | Clinical signs (observation code), Day 3, 4 hours [1]: 0 | Clinical signs (observation code), Day 3, 24 hours [1]: 0 | Clinical signs (observation code), Day 4, 4 hours [1]: 0 | Clinical signs (observation code), Day 4, 24 hours [1]: 0 | Clinical signs (observation code), Day 5, 4 hours [1]: 0 | Clinical signs (observation code), Day 5, 24 hours [1]: 0

Cc1cccc(-c2ccc(/C(=C/CN(C)CC(=O)O)c3ccsc3)cc2)c1 [Compound G(vi), (Z)-N-(1-(4-(3-Methylphenyl)phenyl)-1-(3-thienyl)prop-1-en-3-yl)sarcosine]
Clinical signs (observation code), Day 1, 4 hours [1]: 0 | Clinical signs (observation code), Day 1, 24 hours [1]: 0 | Clinical signs (observation code), Day 2, 4 hours [1]: 0 | Clinical signs (observation code), Day 2, 24 hours [1]: 0 | Clinical signs (observation code), Day 3, 4 hours [1]: 0 | Clinical signs (observation code), Day 3, 24 hours [1]: 0 | Clinical signs (observation code), Day 4, 4 hours [1]: 0 | Clinical signs (observation code), Day 4, 24 hours [1]: 0 | Clinical signs (observation code), Day 5, 4 hours [1]: 0 | Clinical signs (observation code), Day 5, 24 hours [1]: 0

Cc1cscc1/C(=C\CN(C)CC(=O)O)c1ccc(-c2ccsc2)cc1 [Compound G(x), (Z)-N-(1-(4-(3-Thienyl)phenyl)-1-(3-(4-methylthienyl))prop-1-en-3-yl)sarcosine]
Clinical signs (observation code), Day 1, 4 hours [1]: 0 | Clinical signs (observation code), Day 1, 24 hours [1]: 0 | Clinical signs (observation code), Day 2, 4 hours [1]: 0 | Clinical signs (observation code), Day 2, 24 hours [1]: 0 | Clinical signs (observation code), Day 3, 4 hours [1]: 0 | Clinical signs (observation code), Day 3, 24 hours [1]: 0 | Clinical signs (observation code), Day 4, 4 hours [1]: 0 | Clinical signs (observation code), Day 4, 24 hours [1]: 0 | Clinical signs (observation code), Day 5, 4 hours [1]: 0

CC(C)c1ccc(/C(=C/CN(C)CC(=O)O)c2ccsc2)cc1 [Compound H, reference compound]
Toxicity profile in comparison (compounds of formula 1 vs other GlyT1 inhibitors of similar potency): higher toxicity profile

CN(C/C=C(/c1ccc(-c2cccc(OC(F)(F)F)c2)cc1)c1ccsc1)CC(=O)O [Compound G(vii), (Z)-N-(1-(4-(3-(Trifluoromethoxy)phenyl)phenyl)-1-(3-thienyl)prop-1-en-3-yl)sarcosine]
Clinical signs (observation code), Day 1, 4 hours [1]: 0 | Clinical signs (observation code), Day 1, 24 hours [1]: 0 | Clinical signs (observation code), Day 2, 4 hours [1]: 0 | Clinical signs (observation code), Day 2, 24 hours [1]: 0 | Clinical signs (observation code), Day 3, 4 hours [1]: 0 | Clinical signs (observation code), Day 3, 24 hours [1]: 0 | Clinical signs (observation code), Day 4, 4 hours [1]: 0 | Clinical signs (observation code), Day 4, 24 hours [1]: 0 | Clinical signs (observation code), Day 5, 4 hours [1]: 0 | Clinical signs (observation code), Day 5, 24 hours [1]: 0

COc1cccc(-c2ccc(/C(=C/CN(C)CC(=O)O)c3cscc3C)cc2)c1 [Compound G(xii), (Z)-N-(1-(4-(3-Methoxyphenyl)phenyl)-1-(3-(4-methylthienyl))prop-1-en-3-yl)sarcosine]
Clinical signs (observation code), Day 1, 4 hours [1]: 0 | Clinical signs (observation code), Day 1, 24 hours [1]: 0 | Clinical signs (observation code), Day 2, 4 hours [1]: 0 | Clinical signs (observation code), Day 2, 24 hours [1]: 0 | Clinical signs (observation code), Day 3, 4 hours [1]: 0 | Clinical signs (observation code), Day 3, 24 hours [1]: 0 | Clinical signs (observation code), Day 4, 4 hours [1]: 0 | Clinical signs (observation code), Day 4, 24 hours [1]: 0 | Clinical signs (observation code), Day 5, 4 hours [1]: 0

Cc1cccc(-c2ccc(/C(=C/CN(C)CC(=O)O)c3sccc3C)cc2)c1 [Compound G(xiii), (Z)-N-(1-(4-(3-Methylphenyl)phenyl)-1-(2-(3-methylthienyl))prop-1-en-3-yl)sarcosine]
Clinical signs (observation code), Day 1, 4 hours [1]: 0 | Clinical signs (observation code), Day 1, 24 hours [1]: 0 | Clinical signs (observation code), Day 2, 4 hours [1]: 0 | Clinical signs (observation code), Day 2, 24 hours [1]: 0 | Clinical signs (observation code), Day 3, 4 hours [1]: 0 | Clinical signs (observation code), Day 3, 24 hours [1]: 0 | Clinical signs (observation code), Day 4, 4 hours [1]: 0 | Clinical signs (observation code), Day 4, 24 hours [1]: 0 | Clinical signs (observation code), Day 5, 4 hours [1]: 0
